Peptide text beside a SMILES is read from it.

What all share (format): cell-based, human
Series [1] concerns HUVECs. Put plainly: Cytotoxicity testing of peptides in HUVECs (CCK-8). The conditions noted are these: for effect on HUVEC viability (in words): vs control p < 0.01; for cytotoxicity to HUVECs (in words) / toxicity to HUVECs (in words) / effect on HUVEC growth (in words): 24 h, CCK-8; for toxicity to HUVECs (in words): concentration range 3.9–1000 μg/mL; for effect on HUVEC growth (in words): within 3.9–1000 μg/mL. The method, then:
Peptide cytotoxicity in HUVECs was assessed using the CCK‐8 assay to determine cell viability (Suo et al. [2022]). HUVECs were digested with 0.25% trypsin, resuspended in RPMI 1640 complete medium containing 10% FBS at a density of 5 × 10^4 cells/mL, and seeded into 96‐well plates at 100 μL/well. Cells were incubated in a CO2 incubator (37°C, 5% CO2) for 12 h.
Control and experimental groups were established with six replicates each. After cell adhesion, 10 μL of peptide solution was added to the experimental groups at final concentrations of 3.9, 7.8, 15.6, 31.25, 62.5, 125, 250, 500, and 1000 μg/mL, whereas the control group received an equivalent volume of complete medium. After 24 h of incubation in the CO2 incubator, 10 μL of CCK‐8 solution was added to each well, and cells were incubated for 1 h. Optical density (OD) was measured at 450 nm using an Infinite M1000 Pro microplate reader (Tecan, Switzerland). Cell viability was calculated using the following formula: Cell Viability%=AS−AO/AC−AO×100% where A C represents the OD of the control group, A S indicates the OD of the experimental group, and A O is the OD of the blank wells.

In series [2] the test system is HUVECs. Kind of series: Establishment of the AAPH-induced HUVEC oxidative damage model (CCK-8 viability). The note with it: 24 h; for cell survival rate: CCK-8. The method, then: The oxidative damage model was established using the method described by Li et al. ([2023]). HUVECs were seeded into 96‐well plates at a density of 5 × 10^4 cells/mL at 100 μL/well and incubated in a CO2 incubator (37°C, 5% CO2) for 12 h.

In series [3] the test system is HUVECs damaged by AAPH. Put plainly: ROS levels in AAPH-damaged HUVECs (DCFH-DA). The conditions noted are these: 24 h after 6 mmol/L AAPH 24 h, DCFH-DA fluorescence. The method, then:
Model and experimental groups were established, and HUVECs were seeded into 96-well plates at a density of 5 × 10^4 cells/mL at 100 μL/well, with six replicates per group. After cell adhesion, the control group received the medium, whereas the model and experimental groups were treated with 10 μL of AAPH solution to a final concentration of 6 mmol/L. After 24 h of incubation, experimental groups were treated with 10 μL of peptide […] at final concentrations of 250, 500, and 1000 μg/mL. The control and model groups received an equivalent volume of the medium. After another 24 h of incubation, ROS levels were measured according to the instructions of the ROS detection kit. Cells were washed twice with PBS, treated with 10 μL of 10 μmol/L DCFH-DA working solution, and incubated in the dark for 30 min in the CO2 incubator (37°C, 5% CO2). The cells were then washed three times with PBS, and the fluorescence intensity was measured using an Infinite […] microplate reader (Tecan, Switzerland).

Series [4] deals with HUVECs damaged by AAPH. Put plainly: GSH content in AAPH-damaged HUVECs. The conditions noted are these: 250, 500, and 1000 μg/mL, 24 h after 6 mmol/L AAPH 24 h; p < 0.05; three replicates. How it is done: (§1) The model and experimental groups were established, and HUVECs were seeded into 6-well plates at a density of 5 × 10^4 cells/mL at 2 mL/well, with three replicates per group. After cell adhesion, the model and experimental groups were treated with 2 mL of AAPH solution at a final concentration of 6 mmol/L, whereas the control group received an equivalent volume of the medium. After 24 h of incubation, experimental groups were treated with 200 μL of peptide […] at a final concentration of 250, 500, and 1000 μg/mL. The control and model groups received an equivalent volume of the medium. After 24 h incubation, the cells were collected, and the protein content was measured using the BCA protein assay kit. The activities of SOD, CAT, and GSH were determined using the respective assay kits.

For series [5], the system named is HUVECs damaged by AAPH. Kind of series: SOD activity in AAPH-damaged HUVECs. The conditions noted are these: 250, 500, and 1000 μg/mL, 24 h after 6 mmol/L AAPH 24 h; p < 0.05; three replicates. How it is done:
as §1

The subject of series [6] is HUVECs damaged by AAPH. Kind of series: CAT activity in AAPH-damaged HUVECs. The conditions noted are these: 250, 500, and 1000 μg/mL, 24 h after 6 mmol/L AAPH 24 h; p < 0.05; three replicates. How it is done:
as §1

The test system of series [7] is HUVECs damaged by AAPH. The note with it: at different concentrations, 6 mmol/L AAPH model, p > 0.05. The method, then: The experiment included control, model, and experimental groups. HUVECs were seeded into 96‐well plates at a density of 5 × 10^4 cells/mL at 100 μL per well, with six replicates per group. After cell adhesion, the model and experimental groups were treated with 10 μL of AAPH solution to a final concentration of 6 mmol/L, whereas the control group received an equivalent volume of medium. After 24 h, the experimental groups were treated with 10 μL of peptide solutions to final concentrations of 3.9, 7.8, 15.6, 31.25, 62.5, 125, 250, 500, and 1000 μg/mL. The control and model groups received an equivalent volume of medium.

Where [8] appears, read: concentrations of 3.9–500 μg/mL.

`CC[C@H](C)[C@H](NC(=O)[C@H](CCC(=O)O)NC(=O)[C@H](CCSC)NC(=O)[C@@H]1CCCN1C(=O)[C@@H](NC(=O)[C@H](Cc1c[nH]cn1)NC(=O)[C@H](CC(N)=O)NC(=O)[C@H](CO)NC(=O)[C@H](CCC(N)=O)NC(=O)[C@H](CO)NC(=O)[C@@H](NC(=O)[C@H](Cc1c[nH]c2ccccc12)NC(=O)[C@@H](NC(=O)[C@@H](N)Cc1ccccc1)[C@@H](C)O)C(C)C)[C@@H](C)CC)C(=O)N[C@@H](CCC(=O)O)C(=O)N[C@@H](CCC(=O)O)C(=O)N[C@@H](CC(=O)O)C(=O)N[C@@H](CO)C(=O)N[C@@H](C)C(=O)N[C@@H](CCCCN)C(=O)N1CCC[C@H]1C(=O)N[C@@H](Cc1c[nH]c2ccccc12)C(=O)N[C@@H](CC(C)C)C(=O)O` (H-FTWVSQSNHIPMEIEEDSAKPWL-OH; N-terminus and C-terminus assumed): in the series on HUVECs [1] (31.25–1000 μg/mL), the “effect on HUVEC viability (in words)” value is given as “clear inhibitory effect”.
Turning to `CC(C)(N=NC(C)(C)C(=N)N)C(=N)N.Cl.Cl` [AAPH, 2,2′‐azobis(2‐methylpropionamidine) dihydrochloride], the cell survival rate with HUVECs [2] (AAPH 4 mmol/L) is 92.64% ± 0.06%; in the series on HUVECs [2] (AAPH 6 mmol/L), 87.35% ± 0.05%; in the series with HUVECs [2] (AAPH 8 mmol/L), 78.64% ± 0.03%; in the series with HUVECs [2] (AAPH 10 mmol/L) it was 43.10% ± 0.04%; in the series on HUVECs [2] (AAPH 12 mmol/L), 5.07% ± 0.01%. Further, the cell viability (as a rule, a per cent measure of how many cells are alive, often set against a control) with HUVECs [2] (AAPH 0.25, 0.5, 1, and 2 mmol/L, significantly higher than control (p < 0.01)) is above 100%.
In the case of `CC(C)[C@H](NC(=O)[C@H](C)N)C(=O)N[C@H](C(=O)N[C@@H](CCC(=O)O)C(=O)N[C@@H](CO)C(=O)N[C@@H](CCCCN)C(=O)O)C(C)C` [AVVESK] (H-AVVESK-OH; N-terminus and C-terminus assumed), the “cytotoxicity to HUVECs (in words)” value with HUVECs [1] (setting [8]) is given as “no cytotoxicity”.
Turning to `C[C@H](NC(=O)[C@@H](N)CC(=O)O)C(=O)N[C@@H](CO)C(=O)N[C@@H](CS)C(=O)N[C@@H](CCCCN)C(=O)O` [DASCK] (H-DASCK-OH; N-terminus and C-terminus assumed), in the series with HUVECs [1], the “toxicity to HUVECs (in words)” value is on record as “no toxicity” and the “effect on HUVEC growth (in words)” value is given as “promoted cell growth”.
For `CC[C@H](C)[C@H](NC(=O)[C@H](CC(=O)O)NC(=O)[C@@H](N)CC(=O)O)C(=O)N[C@@H](CCSC)C(=O)N[C@@H](CCC(=O)O)C(=O)N[C@@H](CC(=O)O)C(=O)N[C@@H](CCCCN)C(=O)N[C@@H](CC(=O)O)C(=O)N[C@@H](CC(N)=O)C(=O)N[C@@H](Cc1ccccc1)C(=O)O` [DDIMEDKDNF] (H-DDIMEDKDNF-OH; N-terminus and C-terminus assumed), the “cytotoxicity to HUVECs (in words)” value in the series on HUVECs [1] (3.9–250 μg/mL) was “nontoxic”.
For the compound `NCCCC[C@H](NC(=O)[C@H](CC(=O)O)NC(=O)[C@H](CCC(=O)O)NC(=O)[C@H](CC(=O)O)NC(=O)[C@H](CCC(=O)O)NC(=O)[C@H](CC(=O)O)NC(=O)[C@H](CCC(=O)O)NC(=O)[C@@H](N)CC(=O)O)C(=O)O` [DEDEDEDK] (H-DEDEDEDK-OH; N-terminus and C-terminus assumed), in the series with HUVECs [1], the “effect on HUVEC growth (in words)” value is given as “promoted cell growth”. Further, the “ROS content compared with the model group (in words)” value in the series with HUVECs damaged by AAPH [3] (DEDEDEDK 1000 μg/mL, p < 0.05) is on record as “significantly reduced”. In the series with HUVECs damaged by AAPH [3] (DEDEDEDK 250 and 500 μg/mL, p > 0.05), the “ROS levels compared with the model group (in words)” value is on record as “no significant change”. Further, the “GSH content in the cells vs model group (in words)” value in the series on HUVECs damaged by AAPH [4] is reported as “significantly increased”. Moreover, in the series with HUVECs damaged by AAPH [5], the “SOD activity in the cells vs model group (in words)” value is “increased significantly”. The “CAT activity in the cells vs model group (in words)” value with HUVECs damaged by AAPH [6] was “increased significantly”.
For the compound `CSCC[C@H](NC(=O)[C@H](Cc1ccc(O)cc1)NC(=O)CNC(=O)[C@H](CCSC)NC(=O)[C@@H](NC(=O)[C@H](CO)NC(=O)[C@@H](NC(=O)[C@@H](N)CC(=O)O)[C@@H](C)O)[C@@H](C)O)C(=O)N[C@@H](C)C(=O)N[C@@H](C)C(=O)N[C@@H](CCCCN)C(=O)O` [DTSTMGYMAAK] (H-DTSTMGYMAAK-OH; N-terminus and C-terminus assumed), the “toxicity to HUVECs (in words)” value in the series on HUVECs [1] was “no toxicity”. Moreover, in the series on HUVECs damaged by AAPH [7], the “cell viability compared with the model group (in words)” value is “did not show significant differences”.
Take `N[C@@H](CCC(=O)O)C(=O)N[C@@H](CC(=O)O)C(=O)N[C@@H](CCC(=O)O)C(=O)O` [EDE] (H-Glu-Asp-Glu-OH; N-terminus and C-terminus assumed): the “effect on HUVEC growth (in words)” value in the series with HUVECs [1] is “promoted cell growth”. Moreover, in the series on HUVECs damaged by AAPH [7], the “cell viability compared with the model group (in words)” value is “did not show significant differences”.
As to `CC(C)[C@H](NC(=O)[C@H](CCC(=O)O)NC(=O)[C@H](CCC(=O)O)NC(=O)[C@@H](NC(=O)[C@@H](NC(=O)[C@H](CCC(=O)O)NC(=O)[C@@H]1CCCN1C(=O)[C@H](CCC(=O)O)NC(=O)[C@@H](N)Cc1ccccc1)[C@@H](C)O)[C@@H](C)O)C(=O)N[C@@H](CCCNC(=N)N)C(=O)O` [FEPETTEEVR] (H-FEPETTEEVR-OH; N-terminus and C-terminus assumed), in the series with HUVECs [1], the “toxicity to HUVECs (in words)” value was “no toxicity” and the “effect on HUVEC growth (in words)” value was “promoted cell growth”.
Consider `CC[C@H](C)[C@H](NC(=O)[C@H](Cc1c[nH]cn1)NC(=O)CNC(=O)[C@@H](N)Cc1ccccc1)C(=O)N[C@@H](CO)C(=O)N[C@H](C(=O)O)C(C)C` [FGHISV] (H-FGHISV-OH; N-terminus and C-terminus assumed), for which the “cytotoxicity to HUVECs (in words)” value in the series on HUVECs [1] (setting [8]) is “no cytotoxicity”. Besides, the “cell viability compared with the model group (in words)” value in the series on HUVECs damaged by AAPH [7] is reported as “did not show significant differences”.
Take `NCC(=O)N[C@@H](CCC(=O)O)C(=O)N[C@@H](Cc1ccc(O)cc1)C(=O)N[C@@H](CCC(N)=O)C(=O)O` [GEYQ] (H-GEYQ-OH; N-terminus and C-terminus assumed): the “effect on HUVEC viability (in words)” value in the series on HUVECs [1] (3.9–62.5 μg/mL) is reported as “clear inhibitory effect”.

Values taken from paper PMC11807725, “Screening and Antioxidant Activities Evaluation of Peptides From Abalone (Haliotis discus hannai Ino)” (Food Science & Nutrition, 2025).
